Test results from US9512087B2, “Hybrid molecules containing pharmacophores of fluconazole as antifungal agents and their preparation” (Council for Scientific & Industrial Research, priority 2011, dated 2016).
≈ marks a conversion by molar mass, not a printed value.

Columns and labels:
Test in all cases: Antifungal MIC, broth dilution
[1] = system: C. albicans ATCC 24433; format: cell-based, Candida albicans; conditions: Candida albicans, ATCC24433, RPMI 1640 with MOPS, end point 48 hours; for MIC80: read-out: Ca01 A: MIC80; for MIC50: read-out: Ca01 B: MIC50
Experimental: (§1) The compounds of Formula 1 were tested for antifungal activity against Candida albicans, Aspergillus niger and Fusarium proliferatum. In vitro evaluation of antifungal activity was performed by determining the minimum inhibitory concentration (MIC) following standard methods (CLSI: Reference method for broth dilution antifungal susceptibility testing of yeasts; Approved standard, second edition M27-A2, 2002; CLSI: Reference method for broth dilution antifungal susceptibility testing of filamentous fungi; Approved standard M38-A, 2002). Anti-fungal susceptibility testing of these anti-fungal compounds was done by broth dilution method using RPMI 1640 medium with MOPS buffer. Known anti-fungal agents like fluconazole and amphotericin-B were used as positive control. End points were determined after 48 hours visually and by using spectrophotometer wherever necessary. Different dilutions were tried and various sets of experiments performed. The activity parameters are enumerated in Table 5.

[2] = system: C. glabrata ATCC 90030; format: cell-based; conditions: Nakaseomyces glabratus, ATCC90030, RPMI 1640 with MOPS, end point 48 hours, read-out: Cg01 MIC50
[3] = system: C. krusei ATCC 6258; format: cell-based; conditions: Pichia kudriavzevii, ATCC6258, RPMI 1640 with MOPS, end point 48 hours, read-out: Ck01 MIC50
[4] = system: C. tropicalis ATCC 750; format: cell-based; conditions: Candida tropicalis, ATCC750, RPMI 1640 with MOPS, end point 48 hours, read-out: Ct01 MIC50
[5] = system: C. neoformans ATCC 34664; format: cell-based; conditions: Cryptococcus neoformans, ATCC34664, RPMI 1640 with MOPS, end point 48 hours, read-out: Cn01 MIC50
[6] = system: A. niger ATCC 16404; format: cell-based, Aspergillus niger; conditions: Aspergillus niger, ATCC16404, RPMI 1640 with MOPS, end point 48 hours, read-out: An01 MIC50
Experimental: as §1

[7] = system: A. fumigatus ATCC 46645; format: cell-based; conditions: Aspergillus fumigatus, ATCC46645, RPMI 1640 with MOPS, end point 48 hours, read-out: Afm01 MIC50
[8] = system: F. proliferatum ATCC 10052; format: cell-based, Fusarium proliferatum; conditions: Fusarium proliferatum, ATCC10052, RPMI 1640 with MOPS, end point 48 hours, read-out: Fp01 MIC50
Experimental: as §1

Row | MIC80 [1] [µg/mL] | MIC50 [1] [µg/mL] | MIC50 [2] [µg/mL] | MIC50 [3] [µg/mL] | MIC50 [4] [µg/mL] | MIC50 [5] [µg/mL] | MIC50 [6] [µg/mL] | MIC50 [7] [µg/mL] | MIC50 [8] [µg/mL] | Compound
1 | 0.5 (≈ 1.2 µM) | 0.25 (≈ 0.602 µM) | 1 (≈ 2.41 µM) | 32 (≈ 77 µM) | 8 (≈ 19.3 µM) | 16 (≈ 38.5 µM) | > 64 | > 64 | > 64 | COc1cc(/C=C/C=O)ccc1OCC(O)(Cn1cncn1)c1ccc(F)cc1F (stereo not drawn) [Compound 1A-29]
2 | 0.5 (≈ 1.11 µM) | 0.25 (≈ 0.556 µM) | 0.25 (≈ 0.556 µM) | 8 (≈ 17.8 µM) | 2 (≈ 4.45 µM) | 1 (≈ 2.22 µM) | > 8 | > 8 | > 8 | O=C(/C=C/c1cccs1)c1ccc(OCC(O)(Cn2cncn2)c2ccc(F)cc2)cc1 (stereo not drawn) [Compound 1A-17]
3 | 0.25 (≈ 0.459 µM) | 0.25 (≈ 0.459 µM) | 2 (≈ 3.67 µM) | > 8 | 1 (≈ 1.84 µM) | 2 (≈ 3.67 µM) | > 8 | > 8 | > 8 | OC(COc1ccc(C2=NNC(c3ccc(Cl)cc3Cl)C2)cc1)(Cn1cncn1)c1ccc(F)cc1F (stereo not drawn) [Compound 1E-1, 1-(4-(5-(2,4-dichlorophenyl)-4,5-dihydro-1H-pyrazol-3-yl)phenoxy)-2-(2,4-difluorophenyl)-3-(1H-1,2,4-triazol-1-yl)propan-2-ol]
4 | 1 (≈ 1.92 µM) | 0.25 (≈ 0.479 µM) | 2 (≈ 3.83 µM) | > 4 | 2 (≈ 3.83 µM) | 2 (≈ 3.83 µM) | > 4 | > 4 | > 4 | COc1cc(/C=C/C(=O)c2ccc(OCC(O)(Cn3cncn3)c3ccc(F)cc3F)cc2)cc(OC)c1 (stereo not drawn) [Compound 1A-4]
